Data reported in patent US7319098B2, “1,3-dioxoisoindole derivatives having selective antagonism of T-type calcium channel” (Korea Institute of Science and Technology, priority 2006, dated 2008).

Key:
[1] = spinal nerve ligation animal model; cited from earlier work
α1G T-type Ca2+ channels = biological target: T1, α1G T-type Ca2+ channels (Homo sapiens, UniProt O43497); assay: Screening of activity against T-type calcium channel with FDSS6000 (fluorescence, KCl-induced [Ca2+]i increase); format: cell-based; details: HEK293 cells expressing α1G and Kir2.1, read-out: Inhibitory effect (%) of T-type calcium channel, Inhibition (%); for inhibition at 10 µM: NA: Not Active
T1 construct: expressed in transfected cells; host or cells: HEK293 cells stably expressing α1G and Kir2.1
Procedure, shortened: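 HEK293 cells stably expressing α1G plus Kir2.1 were loaded with 5 μM fluo3/AM for 60 min at room temperature in HEPES buffer pH 7.4. In buffer with 10 mM CaCl2, cells were pretreated with compound, then depolarized with 70 mM KCl. The rise in [Ca2+]i was measured by fluorescence […].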

α1G T-type Ca2+ currents = biological target: T2, α1G T-type Ca2+ currents (Homo sapiens, UniProt O43497); assay: Electrophysiological whole cell patch clamp method in HEK293 cell; format: cell-based; details: peak current, step to −30 mV, read-out: Activity (IC50) against T-type calcium channel
T2 construct: expressed in transfected cells; host or cells: HEK293
Description: Meanwhile, the antagonistic activity of the novel compound of Formula (1) herein against T-type calcium channel was tested as described below. The synthesized compounds were tested for the activity against T-type calcium channel with FDSS6000. […] For the recordings of α1G T-type Ca^2+ currents, the standard whole-cell patch-clamp method was utilized as previously described. Briefly, borosilicate glass electrodes with a resistance of 3˜4 MΩ were pulled and filled with the internal solution contained (in mM): 130 KCl, 11 EGTA, 5 Mg-ATP, and 10 HEPES (pH 7.4). […] The molar concentrations of test compounds required to produce 50% inhibition of peak currents (IC50) were determined from fitting raw data into dose-response curves. The current recordings were obtained using an EPC-9 amplifier and Pulse/Pulsefit software program (HEKA, Germany).

T1 sequence (O43497 whole entry): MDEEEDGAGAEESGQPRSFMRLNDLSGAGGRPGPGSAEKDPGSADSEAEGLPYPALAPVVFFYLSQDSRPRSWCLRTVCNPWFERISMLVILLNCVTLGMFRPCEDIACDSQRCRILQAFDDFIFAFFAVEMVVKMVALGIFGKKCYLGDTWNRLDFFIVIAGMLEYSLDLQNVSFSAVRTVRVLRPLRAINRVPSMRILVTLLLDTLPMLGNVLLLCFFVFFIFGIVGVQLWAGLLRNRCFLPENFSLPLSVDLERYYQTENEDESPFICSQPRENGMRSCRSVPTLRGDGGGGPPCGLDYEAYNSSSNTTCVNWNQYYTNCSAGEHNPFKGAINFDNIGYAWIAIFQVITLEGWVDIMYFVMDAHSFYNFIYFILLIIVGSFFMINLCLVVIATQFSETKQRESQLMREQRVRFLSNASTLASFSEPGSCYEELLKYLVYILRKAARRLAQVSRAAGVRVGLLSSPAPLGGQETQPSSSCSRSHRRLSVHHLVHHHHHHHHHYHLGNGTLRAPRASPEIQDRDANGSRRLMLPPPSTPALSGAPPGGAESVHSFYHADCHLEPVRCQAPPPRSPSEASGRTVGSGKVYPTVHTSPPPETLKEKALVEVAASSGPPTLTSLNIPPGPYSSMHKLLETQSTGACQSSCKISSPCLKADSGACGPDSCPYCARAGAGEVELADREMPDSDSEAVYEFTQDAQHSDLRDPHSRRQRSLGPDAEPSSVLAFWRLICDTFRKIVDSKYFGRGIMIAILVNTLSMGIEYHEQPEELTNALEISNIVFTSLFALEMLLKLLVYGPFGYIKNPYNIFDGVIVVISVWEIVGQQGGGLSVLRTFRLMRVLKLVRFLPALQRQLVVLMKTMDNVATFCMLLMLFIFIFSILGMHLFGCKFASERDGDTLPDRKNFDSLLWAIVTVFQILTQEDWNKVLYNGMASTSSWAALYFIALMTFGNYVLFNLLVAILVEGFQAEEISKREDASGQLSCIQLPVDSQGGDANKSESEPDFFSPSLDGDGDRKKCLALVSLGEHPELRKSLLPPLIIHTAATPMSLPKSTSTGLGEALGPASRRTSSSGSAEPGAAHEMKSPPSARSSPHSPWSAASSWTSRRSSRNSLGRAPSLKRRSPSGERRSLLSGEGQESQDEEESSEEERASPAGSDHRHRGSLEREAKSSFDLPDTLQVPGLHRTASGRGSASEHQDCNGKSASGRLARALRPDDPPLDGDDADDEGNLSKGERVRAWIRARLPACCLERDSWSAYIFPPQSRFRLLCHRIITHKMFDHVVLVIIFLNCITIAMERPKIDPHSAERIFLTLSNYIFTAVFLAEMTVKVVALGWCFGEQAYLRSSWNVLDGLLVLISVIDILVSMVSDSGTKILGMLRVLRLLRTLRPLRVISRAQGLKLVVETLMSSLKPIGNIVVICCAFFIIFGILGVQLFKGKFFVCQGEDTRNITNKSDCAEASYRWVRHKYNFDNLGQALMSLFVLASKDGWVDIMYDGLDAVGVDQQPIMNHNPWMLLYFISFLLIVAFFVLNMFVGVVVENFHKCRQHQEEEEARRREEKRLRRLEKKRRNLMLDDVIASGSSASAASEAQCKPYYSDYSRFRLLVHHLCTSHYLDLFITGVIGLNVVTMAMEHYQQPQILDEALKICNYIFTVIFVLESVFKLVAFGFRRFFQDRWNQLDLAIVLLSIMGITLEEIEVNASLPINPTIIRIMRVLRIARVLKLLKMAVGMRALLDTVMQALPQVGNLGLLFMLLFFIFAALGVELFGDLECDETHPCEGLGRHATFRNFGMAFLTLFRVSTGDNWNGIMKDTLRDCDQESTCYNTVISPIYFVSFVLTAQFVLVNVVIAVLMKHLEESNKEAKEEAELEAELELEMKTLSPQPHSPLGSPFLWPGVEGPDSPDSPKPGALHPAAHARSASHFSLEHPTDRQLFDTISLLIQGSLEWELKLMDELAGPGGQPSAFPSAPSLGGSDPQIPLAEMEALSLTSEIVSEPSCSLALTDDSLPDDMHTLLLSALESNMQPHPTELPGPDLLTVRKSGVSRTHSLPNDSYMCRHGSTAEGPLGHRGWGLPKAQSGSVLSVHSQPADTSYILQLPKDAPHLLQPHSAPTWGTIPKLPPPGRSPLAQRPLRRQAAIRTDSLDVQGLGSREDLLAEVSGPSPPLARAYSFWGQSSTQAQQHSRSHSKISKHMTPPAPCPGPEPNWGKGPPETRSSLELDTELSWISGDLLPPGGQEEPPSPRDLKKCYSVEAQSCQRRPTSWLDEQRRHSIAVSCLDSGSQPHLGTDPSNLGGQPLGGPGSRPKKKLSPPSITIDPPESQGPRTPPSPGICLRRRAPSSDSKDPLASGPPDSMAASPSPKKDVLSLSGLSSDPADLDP
T2 sequence (O43497 whole entry): as above

Compound | effect on mechanic and thermal induction (neurogenic pain) [1] | inhibition at 100 µM (α1G T-type Ca2+ channels) | IC50 (α1G T-type Ca2+ currents) | inhibition at 10 µM (α1G T-type Ca2+ channels)
CCC1(C)CC(=O)NC1=O (stereo not drawn) [Ethosuximide] | dosage-dependent reversed mechanic and thermal induction | – | – | –
Cc1ccccc1CN1C(=O)c2ccc(C(=O)NCCN3CCCCC3)cc2C1=O [Compound 93, 1-(2-{[2-(2-methyl-benzyl)-1,3-dioxo-2,3-dihydro-1H-isoindol-5-carbonyl]-amino}-ethyl)-piperidinium chloride] | – | 90.4% | 8280 ± 2950 nM | –
Cc1cccc(CN2C(=O)c3ccc(C(=O)NCCCN4CCCCC4C)cc3C2=O)c1 (stereo not drawn) [Compound 100, 2-methyl-1-(3-{[2-(3-methyl-benzyl)-1,3-dioxo-2,3-dihydro-1H-isoindol-5-carbonyl]-amino}-propyl)-piperidinium chloride] | – | – | 1840 ± 210 nM | 48.4%
Cc1ccccc1CN1C(=O)c2ccc(C(=O)NCCCN3CCCCC3C)cc2C1=O (stereo not drawn) [Compound 94, 2-methyl-1-(3-{[2-(2-methyl-benzyl)-1,3-dioxo-2,3-dihydro-1H-isoindol-5-carbonyl]-amino}-propyl)-piperidinium chloride] | – | 84.8% | 2070 ± 450 nM | –
O=C(NCCN1CCCCC1)c1ccc2c(c1)C(=O)N(Cc1cccc(F)c1)C2=O [Compound 61, 1-(2-{[2-(3-fluoro-benzyl)-1,3-dioxo-2,3-dihydro-1H-isoindol-5-carbonyl]-amino}-ethyl)-piperidinium chloride] | – | 85.5% | 8520 ± 750 nM | –
CC1CCCCN1CCCNC(=O)c1ccc2c(c1)C(=O)N(Cc1ccc(Cl)cc1)C2=O (stereo not drawn) [Compound 88, 1-(3-{[2-(4-chloro-benzyl)-1,3-dioxo-2,3-dihydro-1H-isoindol-5-carbonyl]-amino}-propyl)-2-methyl-piperidinium chloride] | – | – | 930 ± 60 nM | 46.6%
Cc1cccc(CN2C(=O)c3ccc(C(=O)NCCN4CCCCC4)cc3C2=O)c1 [Compound 99, 1-(2-{[2-(3-methyl-benzyl)-1,3-dioxo-2,3-dihydro-1H-isoindol-5-carbonyl]-amino}-ethyl)-piperidinium chloride] | – | 89.7% | 1930 ± 230 nM | –
CC1CCCCN1CCCNC(=O)c1ccc2c(c1)C(=O)N(Cc1ccccc1Cl)C2=O (stereo not drawn) [Compound 76, 1-(3-{[2-(2-chloro-benzyl)-1,3-dioxo-2,3-dihydro-1H-isoindol-5-carbonyl]-amino}-propyl)-2-methyl-piperidinium chloride] | – | – | 1520 ± 190 nM | 50.9%
CC1CCCCN1CCCNC(=O)c1ccc2c(c1)C(=O)N(Cc1cccc(Cl)c1)C2=O (stereo not drawn) [Compound 82, 1-(3-{[2-(3-chloro-benzyl)-1,3-dioxo-2,3-dihydro-1H-isoindol-5-carbonyl]-amino}-propyl)-2-methyl-piperidinium chloride] | – | – | 1810 ± 460 nM | 46.2%
COCC(=O)O[C@]1(CCN(C)CCCc2nc3ccccc3[nH]2)CCc2cc(F)ccc2[C@@H]1C(C)C [Mibefradil, reference compound] | dosage-dependent reversed mechanic and thermal induction | – | – | 75.1%
CC1CCCCN1CCCNC(=O)c1ccc2c(c1)C(=O)N(Cc1ccc(F)cc1)C2=O (stereo not drawn) [Compound 69, 1-(3-{[2-(4-fluoro-benzyl)-1,3-dioxo-2,3-dihydro-1H-isoindol-5-carbonyl]-amino}-propyl)-2-methyl-piperidinium chloride] | – | 84.7% | 2030 ± 120 nM | –
O=C(NCCN1CCOCC1)c1ccc2c(c1)C(=O)N(Cc1cccc(F)c1)C2=O [Compound 65, 4-(2-{[2-(3-fluoro-benzyl)-1,3-dioxo-2,3-dihydro-1H-isoindol-5-carbonyl]-amino}-ethyl)-4-morpholinium chloride] | – | 59.8% | – | –
Cc1ccccc1N1C(=O)c2ccc(C(=O)NCCN3CCCC3)cc2C1=O [Compound 30, 1-{2-[(1,3-dioxo-2-o-tolyl-2,3-dihydro-1H-isoindol-5-carbonyl)-amino]-ethyl}-pyrrolidinium chloride] | – | 33.6% | – | –
O=C(NCCN1CCCCC1)c1ccc2c(c1)C(=O)N(Cc1ccc(Cl)cc1)C2=O [Compound 87, 1-(2-{[2-(4-chloro-benzyl)-1,3-dioxo-2,3-dihydro-1H-isoindol-5-carbonyl]-amino}-ethyl)-piperidinium chloride] | – | – | 960 ± 70 nM | 47.2%
Cc1cccc(CN2C(=O)c3ccc(C(=O)NCCCN4CCCC4)cc3C2=O)c1 [Compound 102, 1-(3-{[2-(3-methyl-benzyl)-1,3-dioxo-2,3-dihydro-1H-isoindol-5-carbonyl]-amino}-propyl)-pyrrolidinium chloride] | – | – | – | 24.8%
COc1ccc(N2C(=O)c3ccc(C(=O)NCCN4CCCCC4)cc3C2=O)cc1 [Compound 48, 1-(2-{[2-(4-methoxy-phenyl)-1,3-dioxo-2,3-dihydro-1H-isoindol-5-carbonyl]-amino}-ethyl)-piperidinium chloride] | – | 31.4% | – | –
